Measurements: patent US8586550B2, “Thiazole derivatives as SGLT2 inhibitors and pharmaceutical composition comprising same” (Green Cross Corporation, priority 2010, dated 2013)

molecular target: T1, Human SGLT2 (hSGLT2) (Homo sapiens, UniProt P31639); test: Sodium-dependent glucose transport (14C-AMG uptake) assay in CHO cells stably expressing hSGLT2; type: cell-based; settings: CHO cells expressing hSGLT2, 14C-AMG uptake, 37° C. for 2 h; single determinations; read-out: hSGLT2 Inhibitory Activity IC50
T1 construct: expressed in transfected cells
T1 sequence (P31639 1-672): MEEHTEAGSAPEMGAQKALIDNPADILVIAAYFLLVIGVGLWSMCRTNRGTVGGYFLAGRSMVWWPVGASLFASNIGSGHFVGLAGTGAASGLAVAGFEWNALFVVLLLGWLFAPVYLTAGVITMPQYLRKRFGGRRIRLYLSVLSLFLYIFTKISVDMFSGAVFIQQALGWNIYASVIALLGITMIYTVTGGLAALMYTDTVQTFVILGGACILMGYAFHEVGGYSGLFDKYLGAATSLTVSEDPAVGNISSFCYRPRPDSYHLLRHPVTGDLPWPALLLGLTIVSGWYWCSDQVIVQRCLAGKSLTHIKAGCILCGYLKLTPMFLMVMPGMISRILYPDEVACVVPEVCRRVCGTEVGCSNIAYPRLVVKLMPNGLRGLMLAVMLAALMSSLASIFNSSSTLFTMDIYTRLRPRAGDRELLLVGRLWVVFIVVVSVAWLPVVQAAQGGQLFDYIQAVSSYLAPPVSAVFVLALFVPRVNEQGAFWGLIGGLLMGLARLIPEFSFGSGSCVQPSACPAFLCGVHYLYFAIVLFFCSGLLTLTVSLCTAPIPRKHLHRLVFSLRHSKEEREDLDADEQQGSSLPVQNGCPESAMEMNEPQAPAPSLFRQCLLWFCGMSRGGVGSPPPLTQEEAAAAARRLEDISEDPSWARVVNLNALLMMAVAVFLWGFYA
From the text: Cloning and Cell Line Construction for Human SGLT2
Human SGLT2 (hSGLT2) gene was amplified by PCR from cDNA-Human Adult Normal Tissue Kidney (Invitrogen). The hSGLT2 sequence was cloned into pcDNA3.1(+) for mammalian expression and were stably transfected into chinese hamster ovary (CHO) cells. SGLT2-expressing clones were selected based on resistance to G418 antibiotic (Geneticin) and activity in the ^14C-α-methyl-D-glucopyranoside (^14C-AMG) uptake assay.
Inhibitory Effects on Human SGLT2 Activities
For sodium-dependent glucose transport assay, cells expressing hSGLT2 were seeded into a 96-well culture plate at a density of 5×10^4 cells/well in RPMI medium 1640 containing 10% fetal bovine serum. The cells were used 1 day after plating. They were incubated in pretreatment buffer (10 mM HEPES, 5 mM Tris, 140 mM choline chloride, 2 mM KCl, 1 mM CaCl2, and 1 mM MgCl2, pH 7.4) at 37° C. for 10 min. They were then incubated in uptake buffer (10 mM HEPES, 5 mM Tris, 140 mM NaCl, 2 mM KCl, 1 mM CaCl2, 1 mM MgCl2, and 1 mM ^14C-nonlabeled AMG, pH 7.4) containing ^14C-labeled (8 μM) and inhibitor or dimethylsulfoxide (DMSO) vehicle at 37° C. for 2 h. Cells were washed twice with washing buffer (pretreatment buffer containing 10 mM AMG at room temperature) and then the radioactivity was measured using a liquid scintillation counter. IC50 was determined by nonlinear regression analysis using GraphPad PRISM [Katsuno, K. et al. J. Pharmacol. Exp. Ther. 2007, 320, 323-330; Han, S. et al. Deabetes, 2008, 57, 1723-1729].

Going from CCCCCOc1cnc(Cc2cc([C@@H]3O[C@H](CO)[C@@H](O)[C@H](O)[C@H]3O)ccc2Cl)s1 [Example 23, (2S,3R,4R,5S,6R)-2-(4-Chloro-3-((5-(pentyloxy)thiazol-2-yl)methyl)phenyl)-6-(hydroxymethyl)-tetrahydro-2H-pyran-3,4,5-triol] to CCCCCSc1cnc(Cc2cc([C@@H]3O[C@H](CO)[C@@H](O)[C@H](O)[C@H]3O)ccc2Cl)s1 [Example 27, (2S,3R,4R,5S,6R)-2-(4-Chloro-3-((5-(pentylthio)thiazol-2-yl)methyl)phenyl)-6-(hydroxymethyl)-tetrahydro-2H-pyran-3,4,5-triol], the IC50 rises from 8.21 nM to 18.9 nM (2.3-fold).

First: CCSc1cnc(Cc2cc([C@@H]3O[C@H](CO)[C@@H](O)[C@H](O)[C@H]3O)ccc2Cl)s1 [Example 24, (2S,3R,4R,5S,6R)-2-(4-Chloro-3-((5-(ethylthio)thiazol-2-yl)methyl)phenyl)-6-(hydroxymethyl)-tetrahydro-2H-pyran-3,4,5-triol]
Second: CCCSc1cnc(Cc2cc([C@@H]3O[C@H](CO)[C@@H](O)[C@H](O)[C@H]3O)ccc2Cl)s1 [Example 25, (2S,3R,4R,5S,6R)-2-(4-Chloro-3-((5-(propylthio)thiazol-2-yl)methyl)phenyl)-6-(hydroxymethyl)-tetrahydro-2H-pyran-3,4,5-triol]
The IC50 of the first is 1.8-fold lower: 30.9 nM for the first, 56.4 nM for the second. The first is the more potent here.

Going from CCCCSc1cnc(Cc2cc([C@@H]3O[C@H](CO)[C@@H](O)[C@H](O)[C@H]3O)ccc2Cl)s1 [Example 26, (2S,3R,4R,5S,6R)-2-(3-((5-(Butylthio)thiazol-2-yl)methyl)-4-chlorophenyl)-6-(hydroxymethyl)-tetrahydro-2H-pyran-3,4,5-triol] to Cc1ccc([C@@H]2O[C@H](CO)[C@@H](O)[C@H](O)[C@H]2O)cc1Cc1ncc(-c2ccc(Cl)cc2)s1 [Example 38, (2S,3R,4R,5S,6R)-2-(3-((5-(4-Chlorophenyl)thiazol-2-yl)methyl)-4-methylphenyl)-6-(hydroxymethyl)tetrahydro-2H-pyran-3,4,5-triol], the IC50 falls from 58.7 nM to 25.6 nM (2.3-fold).

Going from OC[C@H]1O[C@@H](c2ccc(Cl)c(C3(c4ncc(-c5ccoc5)s4)CC3)c2)[C@H](O)[C@@H](O)[C@@H]1O [Example 28, (2S,3R,4R,5S,6R)-2-(4-Chloro-3-(1-(5-(furan-3-yl)thiazol-2-yl)cyclopropyl)phenyl)-6-(hydroxymethyl)tetrahydro-2H-pyran-3,4,5-triol] to OC[C@H]1O[C@@H](c2ccc(Cl)c(C3(c4ncc(-c5cccs5)s4)CC3)c2)[C@H](O)[C@@H](O)[C@@H]1O [Example 29, (2S,3R,4R,5S,6R)-2-(4-Chloro-3-(1-(5-(thiophen-2-yl)thiazol-2-yl)cyclopropyl)phenyl)-6-(hydroxymethyl)tetrahydro-2H-pyran-3,4,5-triol], the IC50 falls from 110 nM to 38.6 nM (2.8-fold). The second is the more potent here.

Compared with Cc1ccc([C@@H]2O[C@H](CO)[C@@H](O)[C@H](O)[C@H]2O)cc1Cc1ncc(-c2ccco2)s1 [Example 30, (2S,3R,4R,5S,6R)-2-(3-((5-(Furan-2-yl)thiazol-2-yl)methyl)-4-methylphenyl)-6-(hydroxymethyl)tetrahydro-2H-pyran-3,4,5-triol], OC[C@H]1O[C@@H](c2ccc(F)c(Cc3ncc(-c4ccco4)s3)c2)[C@H](O)[C@@H](O)[C@@H]1O [Example 40, (2S,3R,4R,5S,6R)-2-(4-Fluoro-3-((5-(furan-2-yl)thiazol-2-yl)methyl)phenyl)-6-(hydroxymethyl)tetrahydro-2H-pyran-3,4,5-triol] is 4.3-fold higher in IC50: 1.43 nM for the first, 6.11 nM for the second.

First: Cc1ccc([C@@H]2O[C@H](CO)[C@@H](O)[C@H](O)[C@H]2O)cc1Cc1ncc(-c2cccs2)s1 [Example 32, (2R,3S,4R,5R,6S)-2-(Hydroxymethyl)-6-(4-methyl-3-((5-(thiophen-2-yl)thiazol-2-yl)methyl)phenyl)tetrahydro-2H-pyran-3,4,5-triol]
Second: OC[C@H]1O[C@@H](c2ccc(F)c(Cc3ncc(-c4cccs4)s3)c2)[C@H](O)[C@@H](O)[C@@H]1O [Example 42, (2S,3R,4R,5S,6R)-2-(4-Fluoro-3-((5-(thiophen-2-yl)thiazol-2-yl)methyl)phenyl)-6-(hydroxymethyl)tetrahydro-2H-pyran-3,4,5-triol]
The IC50 of the first is 6.7-fold lower: 3.8 nM for the first, 25.4 nM for the second.

First: Cc1ccc([C@@H]2O[C@H](CO)[C@@H](O)[C@H](O)[C@H]2O)cc1Cc1ncc(-c2ccsc2)s1 [Example 33, (2R,3S,4R,5R,6S)-2-(Hydroxymethyl)-6-(4-methyl-3-((5-(thiophen-3-yl)thiazol-2-yl)methyl)phenyl)tetrahydro-2H-pyran-3,4,5-triol]
Second: Cc1ccc([C@@H]2O[C@H](CO)[C@@H](O)[C@H](O)[C@H]2O)cc1Cc1ncc(-c2ccccc2)s1 [Example 35, (2R,3S,4R,5R,6S)-2-(Hydroxymethyl)-6-(4-methyl-3-((5-phenylthiazol-2-yl)methyl)phenyl)tetrahydro-2H-pyran-3,4,5-triol]
The IC50 of the first is 3.3-fold lower: 1.28 nM for the first, 4.17 nM for the second. The first is the more potent here.

Going from Cc1ccc([C@@H]2O[C@H](CO)[C@@H](O)[C@H](O)[C@H]2O)cc1Cc1ncc(-c2nccs2)s1 [Example 34, (2S,3R,4R,5S,6R)-2-(3-(2,5′-Bithiazol-2′-ylmethyl)-4-methylphenyl)-6-(hydroxymethyl)tetrahydro-2H-pyran-3,4,5-triol] to Cc1ccc(-c2cnc(Cc3cc([C@@H]4O[C@H](CO)[C@@H](O)[C@H](O)[C@H]4O)ccc3C)s2)cc1 [Example 36, (2R,3S,4R,5R,6S)-2-(Hydroxymethyl)-6-(4-methyl-3-((5-p-tolylthiazol-2-yl)methyl)phenyl)tetrahydro-2H-pyran-3,4,5-triol], the IC50 rises from 5.69 nM to 21.5 nM (3.8-fold). The first is the more potent here.

Compared with Cc1ccc([C@@H]2O[C@H](CO)[C@@H](O)[C@H](O)[C@H]2O)cc1Cc1ncc(-c2ccc(F)cc2)s1 [Example 37, (2S,3R,4R,5S,6R)-2-(3-((5-(4-Fluorophenyl)thiazol-2-yl)methyl)-4-methylphenyl)-6-(hydroxymethyl)tetrahydro-2H-pyran-3,4,5-triol], OC[C@H]1O[C@@H](c2ccc(F)c(Cc3ncc(-c4ccc(F)cc4)s3)c2)[C@H](O)[C@@H](O)[C@@H]1O [Example 45, (2S,3R,4R,5S,6R)-2-(4-Fluoro-3-((5-(4-fluorophenyl)thiazol-2-yl)methyl)phenyl)-6-(hydroxymethyl)tetrahydro-2H-pyran-3,4,5-triol] is 4.9-fold higher in IC50: 9.8 nM for the first, 47.7 nM for the second. The first is the more potent here.

Compared with Cc1ccc([C@@H]2O[C@H](CO)[C@@H](O)[C@H](O)[C@H]2O)cc1Cc1ncc(Cc2ccccc2)s1 [Example 39, (2S,3R,4R,5S,6R)-2-(3-((5-Benzylthiazol-2-yl)methyl)-4-methylphenyl)-6-(hydroxymethyl)tetrahydro-2H-pyran-3,4,5-triol], OC[C@H]1O[C@@H](c2ccc(F)c(Cc3ncc(-c4ccccc4)s3)c2)[C@H](O)[C@@H](O)[C@@H]1O [Example 44, (2S,3R,4R,5S,6R)-2-(4-Fluoro-3-((5-phenylthiazol-2-yl)methyl)phenyl)-6-(hydroxymethyl)tetralrydro-2H-pyran-3,4,5-triol] is 5.7-fold lower in IC50: 176 nM for the first, 30.8 nM for the second.

Compared with OC[C@H]1O[C@@H](c2ccc(F)c(Cc3ncc(-c4ccoc4)s3)c2)[C@H](O)[C@@H](O)[C@@H]1O [Example 41, (2S,3R,4R,5S,6R)-2-(4-Fluoro-3-((5-(furan-3-yl)thiazol-2-yl)methyl)phenyl)-6-(hydroxymethyl)tetrahydro-2H-pyran-3,4,5-triol], OC[C@H]1O[C@@H](c2ccc(Br)c(Cc3ncc(-c4ccco4)s3)c2)[C@H](O)[C@@H](O)[C@@H]1O [Example 46, (2S,3R,4R,5S,6R)-2-(4-Bromo-3-((5-(furan-2-yl)thiazol-2-yl)methyl)phenyl)-6-(hydroxymethyl)-tetrahydro-2H-pyran-3,4,5-triol] is 16-fold lower in IC50: 30.5 nM for the first, 1.89 nM for the second. The second is the more potent here.

In the case of OC[C@H]1O[C@@H](c2ccc(C(F)(F)F)c(Cc3ncc(-c4cccs4)s3)c2)[C@H](O)[C@@H](O)[C@@H]1O [Example 49, (2R,3S,4R,5R,6S)-2-(Hydroxymethyl)-6-(3-((5-(thiophen-2-yl)thiazol-2-yl)methyl)-4-(trifluoromethyl)phenyl)tetrahydro-2H-pyran-3,4,5-triol], the IC50 is reported as 16.9 nM.
